According to DBAASP:
Values after ≈ are worked out from the molar mass of the structure shown. Each block holds one compound with its values, some of them ahead of it.

Legend:
Assay in all cases: ≥ marks a high value that may be exact or a test limit, other limits are often not marked, values filed in µg/mL are converted to µM
[1] = system: Staphylococcus epidermidis ATCC 12228
[2] = system: Salmonella enterica subsp. enterica serovar Pullorum ATCC 7913
[3] = system: Lacticaseibacillus rhamnosus 7469
[4] = system: Escherichia coli ATCC 25922
[5] = system: Staphylococcus aureus ATCC 29213
[6] = system: Pseudomonas aeruginosa ATCC 27853
[7] = system: Streptococcus thermophilus YM-C
[8] = system: Salmonella enterica subsp. enterica serovar Typhimurium ATCC 14028
Escherichia coli UB1005 = system: Escherichia coli UB1005
Streptococcus agalactiae = system: Streptococcus agalactiae
[9] = system: Streptococcus agalactiae CICC 10465
Escherichia coli 078 = system: Escherichia coli 078
[10] = system: Salmonella enterica subsp. enterica serovar Typhimurium C77-31
[11] = system: Staphylococcus aureus ATCC 25923
[12] = system: Escherichia coli NCTC 10418
[13] = system: Staphylococcus aureus NCTC 10788
[14] = system: Staphylococcus aureus ATCC 12493
[15] = system: Enterococcus faecalis NCTC 12697
[16] = system: Candida albicans NCPF 1467
[17] = system: Mannheimia haemolytica 82-25
[18] = system: Micrococcus luteus ATCC 4698
[19] = system: Pseudomonas aeruginosa ATCC 9027
[20] = system: Klebsiella pneumoniae ATCC 10031
[21] = system: Bacillus subtilis KCTC 1021
[22] = system: Shigella dysenteriae ATCC 9752
Escherichia coli = system: Escherichia coli
Serratia marcescens = system: Serratia marcescens
Escherichia coli BL21 = system: Escherichia coli BL21
[23] = system: Staphylococcus aureus ATCC BAA-41
[24] = system: Staphylococcus epidermidis
[25] = system: Staphylococcus aureus ATCC 6538P
[26] = system: Pseudomonas aeruginosa PAO1
[27] = system: Escherichia coli D31 CGSC 5165
[28] = system: Pseudomonas aeruginosa ATCC 47085
[29] = system: Staphylococcus aureus ATCC 35556
[30] = system: Acinetobacter baumannii ATCC 19606
[31] = system: Staphylococcus epidermidis 09A3726
[32] = system: Cutibacterium acnes ATCC 6919
[33] = system: Staphylococcus aureus ATCC 2592
[34] = system: Cutibacterium acnes ATCC 11827
Cutibacterium acnes = system: Cutibacterium acnes
[35] = system: Staphylococcus epidermidis 09B2490

Structure (SMILES): CC[C@H](C)[C@H](NC(=O)[C@H](CC(C)C)NC(=O)[C@@H](NC(=O)[C@@H](N)CC(=O)O)[C@@H](C)CC)C(=O)N[C@H](C(=O)N[C@H](C(=O)NCC(=O)NCC(=O)NCC(=O)N[C@@H](CO)C(=O)NCC(=O)N[C@@H](CCCCN)C(=O)N[C@@H](CCC(=O)O)C(=O)N[C@@H](CCCN=C(N)N)C(=O)N[C@@H](CCCCN)C(=O)N[C@@H](CCCCN)C(=O)N[C@@H](CCCN=C(N)N)C(=O)N[C@@H](CCCN=C(N)N)C(=O)N[C@@H](CCCN=C(N)N)C(N)=O)C(C)C)[C@@H](C)CC [DILIIVGGGSGKERKKRRR]
MIC [1]: > 64 µM
MIC [2]: ≥ 64 µM
MIC [3]: ≥ 64 µM
MIC [4]: > 64 µM
MIC [5]: > 64 µM
MIC [6]: > 64 µM
MIC [7]: ≥ 64 µM
MIC [8]: > 64 µM
MIC (Escherichia coli UB1005): ≥ 64 µM
MIC (Streptococcus agalactiae): 4 µM (≈ 8.55 µg/mL)
MIC [9]: 4 µM (≈ 8.55 µg/mL)
MIC (Escherichia coli 078): ≥ 64 µM
MIC [10]: ≥ 64 µM
MIC [11]: > 64 µM

Structure (SMILES): CC[C@H](C)[C@H](NC(=O)[C@H](CCCCN)NC(=O)[C@@H]1CCCN1C(=O)[C@H](CC(C)C)NC(=O)[C@@H](N)Cc1ccccc1)C(=O)N[C@@H](CC(C)C)C(=O)N[C@@H](CCCCN)C(=O)N[C@H](C(=O)N[C@@H](C)C(=O)N[C@@H](C)C(=O)N[C@@H](CCCCN)C(N)=O)C(C)C [FLPKILKVAAK]
MIC [12]: ≥ 512 µM
MIC [6]: > 512 µM
MIC [13]: ≥ 256 µM
MIC [14]: ≥ 512 µM
MIC [15]: ≥ 512 µM
MIC [16]: ≥ 256 µM

Structure (SMILES): C[C@H](NC(=O)CN)C(=O)N[C@@H](CC(=O)O)C(=O)N[C@@H](CC(=O)O)C(=O)N[C@@H](CC(=O)O)C(=O)N[C@@H](CC(=O)O)C(=O)N[C@@H](CC(=O)O)C(=O)O [GADDDDD]
MIC [17]: 30 µM (≈ 21.6 µg/mL)

Structure (SMILES): CC[C@H](C)[C@H](NC(=O)[C@H](CCCCN)NC(=O)CNC(=O)[C@H](CC(C)C)NC(=O)[C@@H](NC(=O)[C@H](C)NC(=O)[C@H](CCCCN)NC(=O)CNC(=O)[C@H](C)NC(=O)CNC(=O)[C@H](CCCCN)NC(=O)[C@H](CCSC)NC(=O)[C@H](CCCCN)NC(=O)[C@@H](NC(=O)[C@H](Cc1c[nH]c2ccccc12)NC(=O)[C@H](CC(C)C)NC(=O)[C@H](CCCCN)NC(=O)[C@H](CCCCN)NC(=O)[C@H](CC(C)C)NC(=O)[C@@H](N)CC(C)C)[C@@H](C)O)C(C)C)C(=O)N[C@@H](CCCCN)C(=O)NCC(=O)N[C@@H](CC(C)C)C(=O)N[C@@H](CC(C)C)C(=O)O [LLKKLWTKMKGAGKAVLGKIKGLL]
MIC [27]: 1.88 µM (≈ 4.88 µg/mL)
MIC [28]: 3.75 µM (≈ 9.73 µg/mL)
MIC [29]: 3.75 µM (≈ 9.73 µg/mL)
MIC [30]: 0.94 µM (≈ 2.44 µg/mL)

Further lines, results first:

MIC [18]: 1.03 µM (≈ 2.5 µg/mL)
MIC [19]: 51.5 µM (≈ 125 µg/mL)
MIC [20]: 10.3 µM (≈ 25 µg/mL)
MIC [21]: 10.3 µM (≈ 25 µg/mL)
MIC [22]: 20.6 µM (≈ 50 µg/mL)
MIC [8]: 51.5 µM (≈ 125 µg/mL)
MIC (Escherichia coli): 10.3 µM (≈ 25 µg/mL)
MIC (Serratia marcescens): ≥ 82.3 µM
Structure (SMILES): CC[C@H](C)[C@H](NC(=O)CN)C(=O)N[C@@H](CC(C)C)C(=O)N[C@@H](CC(=O)O)C(=O)N[C@H](C(=O)N[C@@H](CC(C)C)C(=O)N[C@@H](CCCCN)C(=O)N[C@@H](CCC(N)=O)C(=O)N[C@@H](Cc1ccccc1)C(=O)N[C@@H](C)C(=O)N[C@@H](CCCCN)C(=O)NCC(=O)N[C@H](C(=O)NCC(=O)N[C@@H](CCCCN)C(=O)N[C@@H](Cc1c[nH]c2ccccc12)C(=O)N[C@@H](CC(C)C)C(=O)N[C@H](C(=O)N[C@@H](CCCCN)C(=O)NCC(=O)N[C@@H](C)C(=O)N[C@@H](C)C(=O)N[C@@H](CCC(N)=O)C(=O)O)C(C)C)C(C)C)[C@@H](C)O [GILDTLKQFAKGVGKWLVKGAAQ]

MIC (Escherichia coli BL21): 2 µM (≈ 3.6 µg/mL)
MIC [23]: 8 µM (≈ 14.4 µg/mL)
MIC [24]: 0.354 µM (≈ 0.637 µg/mL)
MIC [25]: 5.66 µM (≈ 10.2 µg/mL)
MIC [26]: 2.83 µM (≈ 5.09 µg/mL)
Structure (SMILES): CC[C@H](C)[C@H](NC(=O)[C@H](CCCCN)NC(=O)[C@H](CCCCN)NC(=O)[C@H](Cc1ccccc1)NC(=O)[C@H](CC(C)C)NC(=O)[C@H](CCCCN)NC(=O)[C@H](Cc1c[nH]c2ccccc12)NC(=O)[C@@H](N)CCCCN)C(=O)NCC(=O)N[C@@H](C)C(=O)N[C@H](C(=O)N[C@@H](CC(C)C)C(=O)N[C@@H](CCCCN)C(=O)N[C@@H](CCCCN)C(=O)N[C@@H](CC(C)C)C(=O)O)C(C)C [KWKLFKKIGAVLKKL]

MIC [31]: 2.11 µM (≈ 4.7 µg/mL)
MIC [32]: 0.269 µM (≈ 0.6 µg/mL)
MIC [33]: 1.03 µM (≈ 2.3 µg/mL)
MIC [34]: 0.269 µM (≈ 0.6 µg/mL)
MIC (Cutibacterium acnes): 0.269 µM (≈ 0.6 µg/mL)
MIC [35]: 1.03 µM (≈ 2.3 µg/mL)
Structure (SMILES): CC(C)[C@H](N)C(=O)N[C@@H](CCCCN)C(=O)N[C@@H](CCCN=C(N)N)C(=O)N[C@@H](Cc1c[nH]c2ccccc12)C(=O)N[C@@H](CCCCN)C(=O)N[C@@H](CCCCN)C(=O)N[C@@H](Cc1c[nH]c2ccccc12)C(=O)N[C@@H](Cc1c[nH]c2ccccc12)C(=O)N[C@@H](CCCN=C(N)N)C(=O)N[C@@H](CCCCN)C(=O)N[C@@H](Cc1c[nH]c2ccccc12)C(=O)N[C@@H](CCCCN)C(=O)N[C@@H](CCCCN)C(=O)N[C@@H](Cc1c[nH]c2ccccc12)C(=O)N[C@H](C(N)=O)C(C)C [VKRWKKWWRKWKKWV]
